Assay results: patent US7935687B2, “Methods for treating spinal muscular atrophy using tetracycline compounds” (Paratek Pharmaceuticals, Inc., priority 2007, dated 2011)

Tests used:
SMN2 mRNA = test: In vitro cell-free splicing assay for inclusion of exon 7; assay type: biochemical; details: HeLa cell nuclear extract, 30° C., 3 hours
Experimental: The following example illustrates how tetracycline compound of the invention are active in an in vitro cell-free assay for the inclusion of exon 7 in […] mRNA. SMN1 and SMN2 pre-mRNA were prepared by in vitro transcription using T7 RNA polymerase of minigene templates that include exon 6, a truncated portion of intron 6, exon 7, intron 7 and a portion of exon 8 in the presence of ^32P-UTP. Labeled RNA was purified on a denaturing polyacrylamide gel followed by phenol extraction and ethanol precipitation of the RNA.
In vitro cell-free splicing of SMN1 and SMN2 transcripts was carried out in a 10 μl reaction volume at 30° C. for 3 hours. The reactions contained 10 fmol of labeled pre-mRNA, 30% (3 VI) HeLa cell nuclear extract (in 20 mM HEPES, pH 7.4, 20% (v/v) glycerol, 0.1M KC1, 0.2 mM EDTA), 1.3% (w/v) polyvinyl alcohol, 1.56 mM MgCl2, 32 mM HEPES, pH 7.4, 0.5 mM ATP, 20 mM creatine phosphate and either 2 μl of test compound (in 20 mM HEPES, pH 7.4, 0.1M KC1, 0.2 mM EDTA) or buffer alone. Following incubation, 200 μl of a solution containing 0.3M NaAc and 0.2% SDS was added to the reaction. Proteins were removed by extraction with an equal volume of phenol and RNA was precipitated with 2.5 volumes of ethanol. RNA was resuspended in formamide sample buffer and separated on a 9% urea-denaturing polyacrylamide gel. Quantitation of splicing was based on phosphorimage analysis (Fujix BAS2000 or Fujifilm FLA-5100). In this assay, percentage exon 7 inclusion averages 12% for the unmutated SMN1 mRNA and 4% for the SMN2 mRNA.
The in vitro activities for exon 7 splicing are expressed as the Emax (the maximum percentage exon 7 inclusion observed) and Cmax (the lowest compound concentration at which the maximum inclusion occurs in μM). For Emax, percentage inclusion values of less than 10% are indicated by “*”, values of 10-20% are indicated by “**”, and values greater than 20% are indicated by “***”. For Cmax data, concentrations of greater than 40 μM are indicated by “*”, concentrations between 40 and 10 μM are represented by “**” and concentrations of less than 10 μM are represented by “***”.

E. coli (EC D1-209) = test: Antibacterial MIC, gram negative; assay type: cell-based; details: CLSI methodology, 35° C., 18-24 hours; for MIC: Escherichia coli
S. aureus (SA RN450) = test: Antibacterial MIC, gram positive; assay type: cell-based; details: CLSI methodology, 35° C., 18-24 hours; for MIC: Staphylococcus aureus

| MIC (E. coli (EC D1-209)) [µg/mL] | MIC (S. aureus (SA RN450)) [µg/mL] | Compound | Cmax (lowest compound concentration at which the maximum exon 7 inclusion occurs) (SMN2 mRNA) | Emax (maximum percentage exon 7 inclusion observed) (SMN2 mRNA) | MIC Gram Negative (EC D1-209) (E. coli (EC D1-209)) | MIC Gram Positive (SA RN450) (S. aureus (SA RN450)) |
| --- | --- | --- | --- | --- | --- | --- |
| – | – | COC(=O)C1CCN(Cc2ccc(O)c3c2CC2CC4C(N(C)C)C(O)=C(C(N)=O)C(=O)C4(O)C(O)=C2C3=O)CC1 (centres unmarked) [Compound AK] | ** (concentrations between 40 and 10 μM) | * (percentage inclusion values of less than 10%) | ** (modest antibacterial activity (between about 4 and 8 μg/mL)) | *** (Good antibacterial activity (e.g., less than about 4 μg/mL)) |
| > 8 | < 4 | CN(C)CC(=O)Nc1cccc(-c2ccc(O)c3c2C[C@H]2C[C@H]4[C@H](N(C)C)C(O)=C(C(N)=O)C(=O)[C@@]4(O)C(O)=C2C3=O)c1 [Compound K, (4S,4aS,5aR,12aS)-4-Dimethylamino-7-[3-(2-dimethylamino-acetylamino)-phenyl]-3,10,12,12a-tetrahydroxy-1,11-dioxo-1,4,4a,5,5a,6,11,12a-octahydro-naphthacene-2-carboxylic Acid Amide] | * (concentrations of greater than 40 μM) | * (percentage inclusion values of less than 10%) | – | – |
| – | – | CN(CCC#N)Cc1cccc(-c2ccc(O)c3c2CC2CC4C(N(C)C)C(O)=C(C(N)=O)C(=O)C4(O)C(O)=C2C3=O)c1 (centres unmarked) [BL] | * (concentrations of greater than 40 μM) | ** (values of 10-20%) | * (weak antibacterial activity (greater than about 8 μg/mL)) | *** (Good antibacterial activity (e.g., less than about 4 μg/mL)) |
| – | – | CN(C)CCNC(=O)c1cccc(-c2ccc(O)c3c2CC2CC4C(N(C)C)C(O)=C(C(N)=O)C(=O)C4(O)C(O)=C2C3=O)c1 (centres unmarked) [Compound A] | ** (concentrations between 40 and 10 μM) | ** (values of 10-20%) | * (weak antibacterial activity (greater than about 8 μg/mL)) | *** (Good antibacterial activity (e.g., less than about 4 μg/mL)) |
| – | – | CON=Cc1ccc(-c2ccc(O)c3c2CC2CC4C(N(C)C)C(O)=C(C(N)=O)C(=O)C4(O)C(O)=C2C3=O)o1 (centres unmarked) [AZ] | *** (concentrations of less than 10 μM) | ** (values of 10-20%) | * (weak antibacterial activity (greater than about 8 μg/mL)) | *** (Good antibacterial activity (e.g., less than about 4 μg/mL)) |
| – | – | COCCNCc1ccoc1-c1ccc(O)c2c1CC1CC3C(N(C)C)C(O)=C(C(N)=O)C(=O)C3(O)C(O)=C1C2=O (centres unmarked) [BQ] | *** (concentrations of less than 10 μM) | ** (values of 10-20%) | * (weak antibacterial activity (greater than about 8 μg/mL)) | *** (Good antibacterial activity (e.g., less than about 4 μg/mL)) |
| – | – | CN(C)CCCC(=O)Nc1cccc(-c2ccc(O)c3c2CC2CC4C(N(C)C)C(O)=C(C(N)=O)C(=O)C4(O)C(O)=C2C3=O)c1 (centres unmarked) [Compound Q] | *** (concentrations of less than 10 μM) | ** (values of 10-20%) | * (weak antibacterial activity (greater than about 8 μg/mL)) | *** (Good antibacterial activity (e.g., less than about 4 μg/mL)) |
| – | – | CN(C)C1C(O)=C(C(N)=O)C(=O)C2(O)C(O)=C3C(=O)c4c(O)ccc(C(=O)CNCc5ccco5)c4CC3CC12 (centres unmarked) [CC] | *** (concentrations of less than 10 μM) | ** (values of 10-20%) | * (weak antibacterial activity (greater than about 8 μg/mL)) | ** (modest antibacterial activity (between about 4 and 8 μg/mL)) |
| – | – | CN(C)C1C(O)=C(C(N)=O)C(=O)C2(O)C(O)=C3C(=O)c4c(O)ccc(-c5cccc(C(=O)NCc6ccco6)c5)c4CC3CC12 (centres unmarked) [Y] | * (concentrations of greater than 40 μM) | ** (values of 10-20%) | * (weak antibacterial activity (greater than about 8 μg/mL)) | *** (Good antibacterial activity (e.g., less than about 4 μg/mL)) |
| – | – | COCCNC(=O)c1cccc(-c2ccc(O)c3c2CC2CC4C(N(C)C)C(O)=C(C(N)=O)C(=O)C4(O)C(O)=C2C3=O)c1 (centres unmarked) [L] | * (concentrations of greater than 40 μM) | ** (values of 10-20%) | * (weak antibacterial activity (greater than about 8 μg/mL)) | *** (Good antibacterial activity (e.g., less than about 4 μg/mL)) |
| – | – | CN(C)C1C(O)=C(C(N)=O)C(=O)C2(O)C(O)=C3C(=O)c4c(O)ccc(-c5ccc(NC(=O)CNC(C)(C)C)cc5)c4CC3CC12 (centres unmarked) [AF] | *** (concentrations of less than 10 μM) | * (percentage inclusion values of less than 10%) | *** (Good antibacterial activity (e.g., less than about 4 μg/mL)) | *** (Good antibacterial activity (e.g., less than about 4 μg/mL)) |
| – | – | CN(C)C1C(O)=C(C(N)=O)C(=O)C2(O)C(O)=C3C(=O)c4c(O)ccc(-c5ccc(CNCc6cccnc6)o5)c4CC3CC12 (centres unmarked) [BI] | *** (concentrations of less than 10 μM) | ** (values of 10-20%) | *** (Good antibacterial activity (e.g., less than about 4 μg/mL)) | *** (Good antibacterial activity (e.g., less than about 4 μg/mL)) |
| > 8 | > 8 | CN(C)CCCCNCc1ccc(O)c2c1C[C@H]1C[C@H]3[C@H](N(C)C)C(O)=C(C(N)=O)C(=O)[C@@]3(O)C(O)=C1C2=O [Compound CN, (4S,4aS,5aR,12aS)-4-Dimethylamino-7-[(4-dimethylamino-butylamino)-methyl]-3,10,12,12a-tetrahydroxy-1,11-dioxo-1,4,4a,5,5a,6,11,12a-octahydro-naphthacene-2-carboxylic Acid Amide] | *** (concentrations of less than 10 μM) | ** (values of 10-20%) | – | – |
| – | – | CC(C)N(CCNC(=O)c1cccc(-c2ccc(O)c3c2CC2CC4C(N(C)C)C(O)=C(C(N)=O)C(=O)C4(O)C(O)=C2C3=O)c1)C(C)C (centres unmarked) [T] | ** (concentrations between 40 and 10 μM) | ** (values of 10-20%) | * (weak antibacterial activity (greater than about 8 μg/mL)) | *** (Good antibacterial activity (e.g., less than about 4 μg/mL)) |
| – | – | CC(C)N1CCN(CC(=O)c2ccc(O)c3c2CC2CC4C(N(C)C)C(O)=C(C(N)=O)C(=O)C4(O)C(O)=C2C3=O)CC1 (centres unmarked) [BX] | * (concentrations of greater than 40 μM) | * (percentage inclusion values of less than 10%) | * (weak antibacterial activity (greater than about 8 μg/mL)) | *** (Good antibacterial activity (e.g., less than about 4 μg/mL)) |
| – | – | COCCNCC(=O)c1ccc(O)c2c1CC1CC3C(N(C)C)C(O)=C(C(N)=O)C(=O)C3(O)C(O)=C1C2=O (centres unmarked) [AG] | ** (concentrations between 40 and 10 μM) | * (percentage inclusion values of less than 10%) | * (weak antibacterial activity (greater than about 8 μg/mL)) | ** (modest antibacterial activity (between about 4 and 8 μg/mL)) |
| – | – | COc1ccc(-c2ccc(O)c3c2CC2CC4C(N(C)C)C(O)=C(C(N)=O)C(=O)C4(O)C(O)=C2C3=O)cc1CNCC(N)=O (centres unmarked) [BE] | *** (concentrations of less than 10 μM) | ** (values of 10-20%) | * (weak antibacterial activity (greater than about 8 μg/mL)) | *** (Good antibacterial activity (e.g., less than about 4 μg/mL)) |
